Laboratory results taken from publication PMC12454493, “Insight on novel sulfamoylphenyl pyrazole derivatives as anticancer carbonic anhydrase inhibitors” (Molecular Diversity, 2024).

Key:
Type in all cases: cell-based
CAKI-1 = experiment: NCI-60 one-dose SRB screen (Renal Cancer); conditions: Homo sapiens, single dose 10 µM, 48 h, read-out: Growth inhibition percent (GI %)
Description: (§1) The National Cancer Institute (NCI) Developmental Therapeutic Program (www.dtp.nci.nih.gov) selected the 20 novel synthesized compounds 4a-e, 5a-e, 6a-c, 9a-e, 10 and 11 to test for their anticancer activity at a single dose of 10 µM using SRB assay. […] Supplementary Data S3; Table S1 presents the detailed screening results of the most promising compounds. The preliminary screening’s detailed results for the remaining compounds are elucidated in the (Supplementary Data S3; Table S2).
(§2) The guidelines of the Drug Evaluation Branch’s protocol at the NCI in Bethesda served as the basis for the in vitro anticancer screening assays. at one dose 10 µM against a panel of 60 cancer cell lines. The human tumor cell lines used belonged to nine panels: leukemia, melanoma, lung, colon, CNS, ovarian, renal, prostate and breast cancers using the sulforhodamine B (SRB) assay in a 48 h drug exposure protocol.

KM12 = experiment: NCI-60 one-dose SRB screen (Colon Cancer); conditions: Homo sapiens, single dose 10 µM, 48 h, read-out: Growth inhibition percent (GI %)
Description: as §1, §2

HCC-2998 = experiment: NCI-60 one-dose SRB screen (Colon Cancer); conditions: Homo sapiens, single dose 10 µM, 48 h, read-out: Growth inhibition percent (GI %)
Description: as §1, §2

COLO 205 = experiment: NCI-60 one-dose SRB screen (Colon Cancer); conditions: Homo sapiens, single dose 10 µM, 48 h, read-out: Growth inhibition percent (GI %)
Description: as §1, §2

HCT-15 = experiment: NCI-60 one-dose SRB screen (Colon Cancer); conditions: Homo sapiens, single dose 10 µM, 48 h, read-out: Growth inhibition percent (GI %)
Description: as §1, §2

HT29 = experiment: NCI-60 one-dose SRB screen (Colon Cancer); conditions: Homo sapiens, HT-29, single dose 10 µM, 48 h, read-out: Growth inhibition percent (GI %)
Description: as §1, §2

SW-620 = experiment: NCI-60 one-dose SRB screen (Colon Cancer); conditions: Homo sapiens, single dose 10 µM, 48 h, read-out: Growth inhibition percent (GI %)
Description: as §1, §2

HCT-116 = experiment: NCI-60 one-dose SRB screen (Colon Cancer); conditions: Homo sapiens, single dose 10 µM, 48 h, read-out: Growth inhibition percent (GI %)
Description: as §1, §2

SK-MEL-28 = experiment: NCI-60 one-dose SRB screen (Melanoma); conditions: Homo sapiens, single dose 10 µM, 48 h, read-out: Growth inhibition percent (GI %)
Description: as §1, §2

LOX IMVI = experiment: NCI-60 one-dose SRB screen (Melanoma); conditions: Homo sapiens, single dose 10 µM, 48 h, read-out: Growth inhibition percent (GI %)
Description: as §1, §2

UACC-257 = experiment: NCI-60 one-dose SRB screen (Melanoma); conditions: Homo sapiens, single dose 10 µM, 48 h, read-out: Growth inhibition percent (GI %)
Description: as §1, §2

MALME-3M = experiment: NCI-60 one-dose SRB screen (Melanoma); conditions: Homo sapiens, single dose 10 µM, 48 h, read-out: Growth inhibition percent (GI %)
Description: as §1, §2

UACC-62 = experiment: NCI-60 one-dose SRB screen (Melanoma); conditions: Homo sapiens, single dose 10 µM, 48 h, read-out: Growth inhibition percent (GI %)
Description: as §1, §2

SK-MEL-5 = experiment: NCI-60 one-dose SRB screen (Melanoma); conditions: Homo sapiens, single dose 10 µM, 48 h, read-out: Growth inhibition percent (GI %)
Description: as §1, §2

M14 = experiment: NCI-60 one-dose SRB screen (Melanoma); conditions: Homo sapiens, single dose 10 µM, 48 h, read-out: Growth inhibition percent (GI %)
Description: as §1, §2

SK-MEL-2 = experiment: NCI-60 one-dose SRB screen (Melanoma); conditions: Homo sapiens, single dose 10 µM, 48 h, read-out: Growth inhibition percent (GI %)
Description: as §1, §2

MDA-MB-435 = experiment: NCI-60 one-dose SRB screen (Melanoma); conditions: Homo sapiens, single dose 10 µM, 48 h, read-out: Growth inhibition percent (GI %)
Description: as §1, §2

NCI/ADR-RES = experiment: NCI-60 one-dose SRB screen (Ovarian cancer); conditions: Homo sapiens, single dose 10 µM, 48 h, read-out: Growth inhibition percent (GI %)
Description: as §1, §2

OVCAR-8 = experiment: NCI-60 one-dose SRB screen (Ovarian cancer); conditions: Homo sapiens, single dose 10 µM, 48 h, read-out: Growth inhibition percent (GI %)
Description: as §1, §2

OVCAR-3 = experiment: NCI-60 one-dose SRB screen (Ovarian cancer); conditions: Homo sapiens, single dose 10 µM, 48 h, read-out: Growth inhibition percent (GI %)
Description: as §1, §2

IGROV1 = experiment: NCI-60 one-dose SRB screen (Ovarian cancer); conditions: Homo sapiens, IGROV-1, single dose 10 µM, 48 h, read-out: Growth inhibition percent (GI %)
Description: as §1, §2

OVCAR-5 = experiment: NCI-60 one-dose SRB screen (Ovarian cancer); conditions: Homo sapiens, single dose 10 µM, 48 h, read-out: Growth inhibition percent (GI %)
Description: as §1, §2

SK-OV-3 = experiment: NCI-60 one-dose SRB screen (Ovarian cancer); conditions: Homo sapiens, single dose 10 µM, 48 h, read-out: Growth inhibition percent (GI %)
Description: as §1, §2

OVCAR-4 = experiment: NCI-60 one-dose SRB screen (Ovarian cancer); conditions: Homo sapiens, single dose 10 µM, 48 h, read-out: Growth inhibition percent (GI %)
Description: as §1, §2

SF-295 = experiment: NCI-60 one-dose SRB screen (CNS Cancer); conditions: Homo sapiens, single dose 10 µM, 48 h, read-out: Growth inhibition percent (GI %)
Description: as §1, §2

SNB-75 = experiment: NCI-60 one-dose SRB screen (CNS Cancer); conditions: Homo sapiens, single dose 10 µM, 48 h, read-out: Growth inhibition percent (GI %)
Description: as §1, §2

SF-268 = experiment: NCI-60 one-dose SRB screen (CNS Cancer); conditions: Homo sapiens, single dose 10 µM, 48 h, read-out: Growth inhibition percent (GI %)
Description: as §1, §2

SNB-19 = experiment: NCI-60 one-dose SRB screen (CNS Cancer); conditions: Homo sapiens, single dose 10 µM, 48 h, read-out: Growth inhibition percent (GI %)
Description: as §1, §2

U251 = experiment: NCI-60 one-dose SRB screen (CNS Cancer); conditions: Homo sapiens, U-251, single dose 10 µM, 48 h, read-out: Growth inhibition percent (GI %)
Description: as §1, §2

SF-539 = experiment: NCI-60 one-dose SRB screen (CNS Cancer); conditions: Homo sapiens, single dose 10 µM, 48 h, read-out: Growth inhibition percent (GI %)
Description: as §1, §2

For `CCOC(=O)c1ccc(NC(=O)COC(=O)c2cn(-c3ccc(S(N)(=O)=O)cc3)nc2-c2ccccc2)cc1` [Compound 5a, 2-[(4-(Ethoxycarbonyl)phenyl)amino]-2-oxoethyl 3-phenyl-1-(4-sulfamoylphenyl)-1H-pyrazole-4-carboxylate], the inhibition at 10 µM (CAKI-1) was 61.6%, the inhibition at 10 µM (KM12) was 73.6% and the inhibition at 10 µM (HCC-2998) was 63.9%. For the same molecule, the inhibition at 10 µM (COLO 205) was 39.1%, the inhibition at 10 µM (HCT-15) was 72.7% and the inhibition at 10 µM (HT29) was 78.8%. It also gave an inhibition at 10 µM (SW-620) of 47.1%, an inhibition at 10 µM (HCT-116) of 75.8% and an inhibition at 10 µM (SK-MEL-28) of 54.5%. For the same molecule, the inhibition at 10 µM (LOX IMVI) was 69.2%, the inhibition at 10 µM (UACC-257) was 48% and the inhibition at 10 µM (MALME-3M) was 79.1%. The inhibition at 10 µM (UACC-62) was 55.2%, the inhibition at 10 µM (SK-MEL-5) was 70.1% and the inhibition at 10 µM (M14) was 63.5%. It also gave an inhibition at 10 µM (SK-MEL-2) of 50.8%, an inhibition at 10 µM (MDA-MB-435) of 45.1% and an inhibition at 10 µM (NCI/ADR-RES) of 16.6%. It also gave an inhibition at 10 µM (OVCAR-8) of 39.5%, an inhibition at 10 µM (OVCAR-3) of 42.7% and an inhibition at 10 µM (IGROV1) of 45.4%. For the same molecule, the inhibition at 10 µM (OVCAR-5) was 28.7%, the inhibition at 10 µM (SK-OV-3) was 5.67% and the inhibition at 10 µM (OVCAR-4) was 46.6%. It also gave an inhibition at 10 µM (SF-295) of 60%, an inhibition at 10 µM (SNB-75) of 60.6% and an inhibition at 10 µM (SF-268) of 52.2%. For the same molecule, the inhibition at 10 µM (SNB-19) was 60.9%, the inhibition at 10 µM (U251) was 58.5% and the inhibition at 10 µM (SF-539) was 46%.
